Experimental data reported in US12208091B2, “Compounds for treatment of eye diseases associated with excessive vascularisation” (Active Biotech AB, priority 2019, dated 2025).

Key:
[1] = test system: VEGF induced corneal vascularisation; assay: VEGF induced corneal vascularisation (pellet in corneal pocket), area of neovascularisation; assay type: in vivo, C57BL/6 mice; design: Area of vasc.: unit not given beside the values
Method: The area of the neovascularisation can be measured using the formula: Area=0.2·VL·CH·π wherein vessel length (VL) and continuous circumferential zone (in clock hours=CH) are measured as defined in FIG. 1. Treatment with Laquinimod of VEGF Induced Corneal Vascularisation
Hydron pellets for induction of vascularisation were prepared from stimulant (VEGF) and binding agent (sucralfate).
53 CR female C57BL/6 mice aged 6 to 8 weeks were prepared for surgery by anesthetising with 90 mg/kg of pentobarbital, ip. Corneal vascularisation was induced by placement of a pellet in a corneal pocket cut in one eye. Signs for ocular irritation or infection were carefully monitored.
[…] Vascularisation was measured on day 8.

[2] = test system: Human retinal microvascular endothelial cells (HRMECs); assay: LPS-activated microglia-induced HRMEC tube formation (co-culture); assay type: cell-based
Method: The following experimental groups were included in the study: • Group 1: […] Sulforaphane (10 μM, positive control, anti-angiogenic effects) • Group 3: Aflibercept (“Eylea” 40 μg/ml, positive control, partial anti-angiogenic effects) • Group 4: […] Human retinal microvascular endothelial cells (HRMECs) were purchased from Neuromics (Cat #HEC09, Lot #2872) and cultured according to manufacturer's instructions in Endo-Growth media (Cat #EKG001, Lot #EKG0011902269) supplemented with Endothelial Growth Factor (Cat #EKG001, Lot #EGK00125) on AlphaBiocoat coated T25 flasks at 37° C. 5% CO2. […] Human microglia were seeded onto PLL coated cell culture inserts (Sarstedt, Cat #83.3932.040) at 103 000 cells/cm^2. […] The method for co-cultures of microglia and HRMECs was modified from protocol described by Ding et al. 2018 (Ding X, Gu R, Zhang M, Ren H, Shu Q, Xu G, Wu H. Microglia enhanced the angiogenesis, migration and proliferation of co-cultured RMECs. […] PMID: 30223824; PMCID: PMC6142340) and Ji Cho et al. 2019 (Ji Cho M, Yoon […], Park J, Lee J, Park J G, Cho Y L, Hun Kim J, Jang H, Park Y J, Lee S H, Min J K. Oxidative stress-mediated TXNIP loss causes RPE dysfunction. […] PMID: 31615975; PMCID: PMC6802648). Microglia was activated with LPS (100 ng/ml) in microglia complete growth media without FBS with simultaneous treatment of freshly prepared study compounds, Eylea and vehicle for 24 hours. HRMECs were incubated in basal Endo-Growth media for 24 hours before co-culturing. […] Media in microglia inserts containing LPS was replaced to corresponding freshly prepared study compounds, aflibercept and sulforaphane in basal Endo-Growth media. […] 5% CO2, stained with calcein-AM (5 μM) for 30 min and imaged using a fluorescence microscope (Leica Thunder 3D Tissue Imager, Leica Microsystems). Images were analyzed using the AngioTool software (Zudaire E, Gambardella L, Kurcz […] Computational Tool for Quantitative Analysis of Vascular Networks. PLOS ONE 6(11): e27385. https://doi.org/10.1371/journal.pone.0027385) for ImageJ (NIH public domain). Total tube area, tube length, density, lacunarity, and branching index (number of junctions and endpoints) were quantified. Images were analyzed using AngioTool software (NIH, Bethesda, MD; available in the public domain) for the following readouts: average vessels length, total vessels length, vessel area, vessels percentage area, total number of junctions, density of junctions, total number of endpoints, and mean lacunarity. […] Raw data for each of the readouts was plotted and analyzed by ordinary one-way ANOVA with Dunnett's multiple comparisons post-hoc test. […] Effect size data were analyzed by non-parametric Kruskal-Wallis test, with Dunn's multiple comparisons post-hoc test.

[3] = test system: Human retinal microvascular endothelial cells (HRMECs); assay: Tube formation assay, combination with aflibercept (contemplated); assay type: cell-based; conditions: 0.01 and 0.1 μM combined with Aflibercept (30 nM)
Source text: Microglia, especially activated microglia play important roles in angiogenesis and maintenance of vascular function haemostasis in the retinal microvasculature (Ding et al 2018). It is contemplated that a co-culture of human retinal microvasculature endothelial cells (HRMEC's) and human microglia from brain can be used to assess the effects of a compound of the disclosure, such as laquinimod, tasquinimod, ABR-215174 or ABR-215691, on neovascularization. A method such as the one outlined below may be used.
This study may be carried out substantially as outlined in Example 3.
Tube formation assay is performed using 24-well plate wells coated with Matrigel or in 96-wells as described Ding et al. 2018 (Ding et al. BMC Ophthalmology (2018) 18:249): A 96-well plate is coated with 50 μL/well Matrigel at 37° C. for 30 min. After co-culturing with microglia for 24 h, HRMECs are seeded on the Matrigel at 1.5×10^4 cells/well in 100 μL medium. After a period of time, for example 4 h, tube formation is observed and photographed with a microscope (Leica Microsystems). Images are analysed using the Angiotool plugin (Zudaire et al., 2011, PLoS one, 6, 11, e27385) for ImageJ (NIH public domain). Total tube area, tube length, density, lacunarity, and branching index (number of junctions and endpoints) are quantified.

[4] = test system: choroidal neovascularisation; assay: Laser-induced choroidal neovascularisation rat model, fluorescein angiography leakage score; assay type: in vivo, Brown Norway pigmented rats; design: key to Mean score of fluorescein leakage: 0 = no leakage, 1 = slight, 2 = moderate, 3 = strongly stained; conditions: Per os 0.5 mg/kg 1×/day
Method: Forty-eight (48) Brown Norway pigmented rats were divided into six (6) groups of eight (8) animals. Choroidal neovascularization was induced using a 532 nm argon laser photocoagulator (six (6) 75 μm-sized spots at 150 mW for 0.1 sec duration) in the right eyes on Day 0. The test item was administered three times a day by instillation or twice a day by oral administration from Day 0 (DO) just after ChNV induction to Day 21 (last day of the study). Control item (vehicle) was instilled three times a day and the reference item (Dexamethasone in olive oil) was administered by daily oral administration from the Day 0 just after induction of neovascularization to Day 21. Fundus neovessels were evaluated in the right eyes on Days 14 and 21 using Heidelberg's Retinal Angiograph (HRA). Lesion size was determined on choroid flatmounts labelled with Isolectin-B4 at the end of the in vivo period.
On Day 0, animals were anesthetized by an intramuscular injection of a mix of xylazine (5 mg/kg) and ketamine (25 mg/kg). Pupils from the right eyes were dilated by instillation of one drop of 0.5% tropicamide. Then, six (6) choroidal burns (75 μm spot size) were done through a slit-lamp, with a contact lens, around the optic disc, between the main vessel branches using an argon laser photocoagulator (532 nm; 150 mW; 0.1 sec duration). Production of a bubble at the time of laser treatment confirmed the rupture of Bruch's membrane.
Test, control, or reference items were administered topically by instillation (10 μL each) or by oral route (1 mL/kg) from Day 0 (just after the induction) to Day 21 (end of the study). Test and control items were administered three times a day (for instillation) and two times a day (for oral administration). Reference item was administered once a day by oral route.
Fluorescein angiography was performed on Days 14 and 21 using an HRA (Heidelberg's Retinal Angiograph). After anaesthesia (same mix used for ChNV induction) and pupillary dilation, 250 μL/100 g (body weight) of a 10% sodium fluorescein was injected subcutaneously using a 26-G insulin syringe, and fluorescein photos were recorded 10 minutes after dye injection.
The leakage of fluorescein on the angiograms were evaluated by two examiners in a masked fashion and graded as follows: • Score 0, no leakage; • Score 1, slightly stained; • Score 2, moderately stained; • Score 3, strongly stained.
Statistical analysis, using Mann-Whitney U test or appropriate statistical model, were performed on the scoring of lesions visualized by HRA from each animal and on the scoring of the flat mounted preparations.
The grading of fluorescein angiographies (FA) was based on the fluorescence intensity for each lesion. For each treatment group, results were expressed as the group mean score per time-point. Table 1 summarises the evaluation of FA recorded at 10 min on Days 14 and 21 (n=8 animals per group, right eyes). A statistical analysis was performed on the median of the individual intensity scores, using a Kruskall-Wallis test followed by a Mann & Whitney U multiple comparison test, which was used to compare each test, control or reference group.

[5] = Animal body weight in the ChNV rat study; assay type: in vivo, Brown Norway pigmented rats; conditions: during the study, oral 0.5 mg/kg 1×/day
Method: The body weight of all animals was recorded before the start of the study, then once every week.
Animal body weights were recorded before induction and treatment (baseline) and then once a week. Animal body weights were within the normal range at the baseline: 166-202 g (min−max, n=48). On Day 21, no significant difference between test and control items was observed. […] This loss is an expected adverse effect of orally dosed corticosteroid.

[6] = test system: bFGF induced corneal vascularisation; assay: bFGF induced corneal vascularisation (pellet in corneal pocket), area of neovascularisation; assay type: in vivo, C57BL/6 mice
[7] = test system: metastatic chemo naïve prostate cancer (mCRPC); conditions: randomized placebo controlled Phase 2 and 3 studies; cited from earlier work
[8] = group 2: 5 mg/kg ip qd ×7, measured day 8
[9] = group 2: 5 mg/kg po qd ×5, measured day 6

## Avastin: Bevacizumab (Avastin) is an IgG1-based antibody which binds VEGF-A; positive control
[1]; 5 mg/kg (reference)
  Inhibition of corneal vascularisation induced by VEGF: 100%
[1]; [8]
  Area of vasc.: 0.00 ± 0.00
  Area percent of positive control: 0%

## C[S+]([O-])CCCCN=C=S (stereo not shown) [sulforaphane, reference compound]
[2]; 10 μM, positive control, set to 100% by normalisation (vehicle 0%)
  Normalized effect size on average vessel length: 100%

## Cn1c(=O)c(C(=O)Nc2ccccc2)c(O)c2c(Cl)cccc21 [ABR-215174, 5-chloro-4-hydroxy-1-methyl-2-oxo-1,2-dihydroquinoline-3-carboxylic acid phenylamide]
[3]
  effect on tube formation of combination compared to each compound used as monotherapy: clear additive effect
[2]; 0.1 μM, normalised to vehicle 0%, sulforaphane 100%
  Normalized effect size on average vessel length: 88.2%

## C[C@@H]1C[C@H]2[C@@H]3CCC4=CC(=O)C=C[C@]4(C)[C@@]3(F)[C@@H](O)C[C@]2(C)[C@@]1(O)C(=O)CO [Dexamethasone, reference compound]
[4]; Day 14
  % of reduction vs respective vehicle: 71%
  Mean score of fluorescein leakage: 0.7
[4]; Day 21
  % of reduction vs respective vehicle: 73%
  Mean score of fluorescein leakage: 0.8
[5]
  body weight loss: 21%

## CCN(CC)CCNC(=O)c1c(C)[nH]c(/C=C2\C(=O)Nc3ccc(F)cc32)c1C [Sutent, reference compound]
[6]; 40 mg/kg
  Inhibition of corneal vascularisation induced by bFGF: 80%
[6]; [9]
  Area of vasc.: 0.72 ± 0.08
  Area percent of positive control: 20%

## COc1cccc2c1c(O)c(C(=O)N(C)c1ccc(C(F)(F)F)cc1)c(=O)n2C [tasquinimod]
[7]
  Disease progression (primary endpoint): significantly delayed

## Eylea: recombinant protein aflibercept (Eylea) with affinity for VEGF-A, VEGF-B, and PGF
[2]; 40 μg/ml, normalised to vehicle 0%, sulforaphane 100%
  Normalized effect size on average vessel length: 18%
